# Results: patent US20240226228A1, “ANTIMICROBIAL PEPTOID HAVING IMPROVED SELECTIVITY AND ANTIMICROBIAL COMPOSITION COMPRISING SAME” (priority 2021, published 2024)
# Like-named read-outs stand apart in the source and are kept apart here. Where a SMILES comes first, the peptide text is derived from it. [ ]: non-standard residue; d: D form. Gly(N(CH2)2(3-indolyl)) = O=C(O)CNCCc1c[nH]c2ccccc12; Gly(N-CH2CH2-imidazol-4-yl) = O=C(O)CNCCc1c[nH]cn1; Nspe = C[C@H](NCC(=O)O)c1ccccc1; Nphe = O=C(O)CNCc1ccccc1; Nlys = NCCCCNCC(=O)O
# Assays:
# E. coli ATCC25922 = system: E. coli ATCC25922
# How it was run: (§1)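 Cation-adjusted MHB2 cultures (18 h, subcultured 4 h) adjusted to 2×10^5–5×10^5 CFU/mL in medium with 0.02% BSA and 0.001% acetic acid.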
# S. aureus ATCC 25923 = system: S. aureus ATCC 25923
# How it was run: as §1
# red blood cells = experiment: Hemolysis assay; assay type: cell-based, Sprague-Dawley mouse
# How it was run: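 Peptoid is mixed with 10% (v/v) PBS-washed erythrocytes (male Sprague-Dawley […], 13 weeks) and held 1 h at 37 °C. Hemolysis is calculated from 540 nm absorbance of the supernatant, with PBS as 0% and Triton X-100 as 100%.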
# [1] = Tables 11-13, 24 hours at 37° C., maximum concentration 25 μM
# [2] = Table 18, TFA salt vs counter ion-substituted (HCl, AcOH) peptoids
SMILES,MIC E. coli ATCC25922 (E. coli ATCC25922; [1]) [µM],MIC S. aureus ATCC 25923 (S. aureus ATCC 25923; [1]) [µM],HC10 (red blood cells),HC50 (red blood cells),Hmax (100 μM) (red blood cells),MIC E. coli ATCC25922 (E. coli ATCC25922; [2]) [µM],MIC S. aureus ATCC 25923 (S. aureus ATCC 25923; [2]) [µM],MIC E. coli ATCC25922 (E. coli ATCC25922; ATCC25922) [µM],MIC S. aureus ATCC 25923 (S. aureus ATCC 25923; ATCC 25923) [µM],HD10 (red blood cells),HD50 (red blood cells)
NCCCCNCC(=O)N(CCc1c[nH]c2ccccc12)CC(=O)N(CCc1c[nH]c2ccccc12)CC(=O)N(CCCCN)CC(=O)N(CCc1c[nH]c2ccccc12)CC(=O)N(CCc1c[nH]c2ccccc12)CC(=O)N(CCCCN)CC(=O)N(CCc1c[nH]c2ccccc12)CC(=O)N(CCc1c[nH]c2ccccc12)CC(=O)N(CCCCN)CC(=O)N(CCc1c[nH]c2ccccc12)CC(=O)N(CCc1c[nH]c2ccccc12)CC(N)=O [Peptoid 23] (H-[Nlys][Gly(N(CH2)2(3-indolyl))][Gly(N(CH2)2(3-indolyl))][Nlys][Gly(N(CH2)2(3-indolyl))][Gly(N(CH2)2(3-indolyl))][Nlys][Gly(N(CH2)2(3-indolyl))][Gly(N(CH2)2(3-indolyl))][Nlys][Gly(N(CH2)2(3-indolyl))][Gly(N(CH2)2(3-indolyl))]-NH2),25,1.6,17.1 µM,45.2 µM,72.2 ± 0.3%,,,,,,
C[C@@H](c1ccccc1)N(CC(N)=O)C(=O)CN(C(=O)CN(CCCCN)C(=O)CN(C(=O)CN(C(=O)CN(CCCCN)C(=O)CN(C(=O)CN(C(=O)CN(CCCCN)C(=O)CN(CCc1c[nH]c2ccccc12)C(=O)CN(C(=O)CNCCCCN)[C@@H](C)c1ccccc1)[C@@H](C)c1ccccc1)[C@@H](C)c1ccccc1)[C@@H](C)c1ccccc1)[C@@H](C)c1ccccc1)[C@@H](C)c1ccccc1 [Peptoid 10-1],,,15.3 µM,37.8 µM,81.5 ± 7.4%,6.3,3.1,,,,
C[C@@H](c1ccccc1)N(CC(N)=O)C(=O)CN(C(=O)CN(CCCCN)C(=O)CN(C(=O)CN(CCCCN)C(=O)CN(CCCCN)C(=O)CN(C(=O)CN(C(=O)CN(CCCCN)C(=O)CN(CCc1c[nH]c2ccccc12)C(=O)CN(CCc1c[nH]c2ccccc12)C(=O)CNCCCCN)[C@@H](C)c1ccccc1)[C@@H](C)c1ccccc1)[C@@H](C)c1ccccc1)[C@@H](C)c1ccccc1 [Peptoid 33],12.5,3.1,>100/>100 μM,>100/>100 μM,5.0 ± 0.2%,,,,,,
C[C@@H](c1ccccc1)N(CC(=O)N(CCCCN)CC(=O)N(CC(=O)N(CC(=O)N(CCCCN)CC(=O)N(CC(=O)N(CC(=O)N(CCCCN)CC(=O)N(CC(=O)N(CC(N)=O)Cc1ccccc1)Cc1ccccc1)[C@@H](C)c1ccccc1)[C@@H](C)c1ccccc1)[C@@H](C)c1ccccc1)[C@@H](C)c1ccccc1)C(=O)CN(C(=O)CNCCCCN)[C@@H](C)c1ccccc1 [Peptoid 44] (H-[Nlys][Nspe][Nspe][Nlys][Nspe][Nspe][Nlys][Nspe][Nspe][Nlys][Nphe][Nphe]-NH2),6.3,1.6,6.3 µM,28.6 µM,97.9 ± 3.7%,,,,,,
C[C@@H](c1ccccc1)N(CC(=O)N(CCCCN)CC(=O)N(CC(=O)N(CC(=O)N(CCCCN)CC(=O)N(CC(=O)N(CC(=O)N(CCCCN)CC(=O)N(CCc1c[nH]c2ccccc12)CC(=O)N(CCc1c[nH]c2ccccc12)CC(N)=O)[C@@H](C)c1ccccc1)[C@@H](C)c1ccccc1)[C@@H](C)c1ccccc1)[C@@H](C)c1ccccc1)C(=O)CN(CCCCN)C(=O)CNCCCCN [Peptoid 31] (H-[Nlys][Nlys][Nspe][Nlys][Nspe][Nspe][Nlys][Nspe][Nspe][Nlys][Gly(N(CH2)2(3-indolyl))][Gly(N(CH2)2(3-indolyl))]-NH2),6.3,3.1,59.0 µM,> 100 µM,18.4 ± 5.0%,,,,,,
C[C@@H](c1ccccc1)N(CC(N)=O)C(=O)CN(CCCCN)C(=O)CN(CCCCN)C(=O)CN(C(=O)CN(C(=O)CN(CCCCN)C(=O)CN(C(=O)CN(C(=O)CN(CCCCN)C(=O)CN(CCc1c[nH]c2ccccc12)C(=O)CN(CCc1c[nH]c2ccccc12)C(=O)CNCCc1c[nH]cn1)[C@@H](C)c1ccccc1)[C@@H](C)c1ccccc1)[C@@H](C)c1ccccc1)[C@@H](C)c1ccccc1 [Peptoid 72] (H-[Gly(N-CH2CH2-imidazol-4-yl)][Gly(N(CH2)2(3-indolyl))][Gly(N(CH2)2(3-indolyl))][Nlys][Nspe][Nspe][Nlys][Nspe][Nspe][Nlys][Nlys][Nspe]-NH2),,,,,11.8 ± 1.1,,,6.3,6.3,88.9,> 100.0
C[C@@H](c1ccccc1)N(CC(N)=O)C(=O)CN(CCCCN)C(=O)CN(CCCCN)C(=O)CN(C(=O)CN(C(=O)CN(CCCCN)C(=O)CN(CCc1c[nH]c2ccccc12)C(=O)CN(C(=O)CN(CCCCN)C(=O)CN(C(=O)CN(C(=O)CNCCCCN)[C@@H](C)c1ccccc1)[C@@H](C)c1ccccc1)[C@@H](C)c1ccccc1)[C@@H](C)c1ccccc1)[C@@H](C)c1ccccc1 [Peptoid 24],>25,6.3,>100/>100 μM,>100/>100 μM,1.5 ± 0.0%,,,,,,
C[C@@H](c1ccccc1)N(CC(N)=O)C(=O)CN(C(=O)CN(CCCCN)C(=O)CN(CCc1c[nH]c2ccccc12)C(=O)CN(CCc1c[nH]c2ccccc12)C(=O)CN(CCCCN)C(=O)CN(CCc1c[nH]c2ccccc12)C(=O)CN(CCc1c[nH]c2ccccc12)C(=O)CN(CCCCN)C(=O)CN(C(=O)CN(C(=O)CNCCCCN)[C@@H](C)c1ccccc1)[C@@H](C)c1ccccc1)[C@@H](C)c1ccccc1 [Peptoid 20],6.3,1.6,8.2 µM,33.9 µM,106.7 ± 3.5%,,,,,,
C[C@@H](c1ccccc1)N(CC(N)=O)C(=O)CN(C(=O)CN(CCCCN)C(=O)CN(C(=O)CN(CCCCN)C(=O)CN(CCCCN)C(=O)CN(CCc1c[nH]c2ccccc12)C(=O)CN(C(=O)CN(CCCCN)C(=O)CN(C(=O)CN(C(=O)CNCCCCN)[C@@H](C)c1ccccc1)[C@@H](C)c1ccccc1)[C@@H](C)c1ccccc1)[C@@H](C)c1ccccc1)[C@@H](C)c1ccccc1 [Peptoid 25],>25,3.1,>100/>100 μM,>100/>100 μM,2.7 ± 0.4%,,,,,,
NCCCCNCC(=O)N(CC(=O)N(CC(=O)N(CCCCN)CC(=O)N(CC(=O)N(CC(=O)N(CCCCN)CC(=O)N(CC(=O)N(CC(=O)N(CCCCN)CC(=O)N(CC(=O)N(CC(N)=O)Cc1ccccc1)Cc1ccccc1)Cc1ccccc1)Cc1ccccc1)Cc1ccccc1)Cc1ccccc1)Cc1ccccc1)Cc1ccccc1 [Peptoid 2] (H-[Nlys][Nphe][Nphe][Nlys][Nphe][Nphe][Nlys][Nphe][Nphe][Nlys][Nphe][Nphe]-NH2),12.5,3.1,20.4 µM,> 100.0 µM,17.7 ± 1.1%,,,,,,
C[C@@H](c1ccccc1)N(CC(=O)N(CCCCN)CC(=O)N(CCCCN)CC(=O)N(CCc1c[nH]c2ccccc12)CC(=O)N(CCc1c[nH]c2ccccc12)CC(N)=O)C(=O)CN(CCCCN)C(=O)CN(C(=O)CN(C(=O)CN(CCCCN)C(=O)CN(C(=O)CN(C(=O)CNCCCCN)[C@@H](C)c1ccccc1)[C@@H](C)c1ccccc1)[C@@H](C)c1ccccc1)[C@@H](C)c1ccccc1 [Peptoid 28] (H-[Nlys][Nspe][Nspe][Nlys][Nspe][Nspe][Nlys][Nspe][Nlys][Nlys][Gly(N(CH2)2(3-indolyl))][Gly(N(CH2)2(3-indolyl))]-NH2),12.5,6.3,>100/>100 μM,>100/>100 μM,8.9 ± 1.4%,,,,,,
C[C@@H](c1ccccc1)N(CC(=O)N(CCCCN)CC(=O)N(CCc1c[nH]c2ccccc12)CC(=O)N(CCc1c[nH]c2ccccc12)CC(N)=O)C(=O)CN(CCCCN)C(=O)CN(CCCCN)C(=O)CN(C(=O)CN(C(=O)CN(CCCCN)C(=O)CN(C(=O)CN(C(=O)CNCCc1c[nH]cn1)[C@@H](C)c1ccccc1)[C@@H](C)c1ccccc1)[C@@H](C)c1ccccc1)[C@@H](C)c1ccccc1 [Peptoid 81] (H-[Gly(N-CH2CH2-imidazol-4-yl)][Nspe][Nspe][Nlys][Nspe][Nspe][Nlys][Nlys][Nspe][Nlys][Gly(N(CH2)2(3-indolyl))][Gly(N(CH2)2(3-indolyl))]-NH2),,,,,5.7 ± 0.1,,,6.3,6.3,>100.0/>100.0,>100.0/>100.0
